How the values were obtained:
[1] = target: Macrophage colony-stimulating factor 1 receptor (Homo sapiens) (UniProt P07333); settings: Compound concentration 1000.0 nM
[2] = target: Sigma non-opioid intracellular receptor 1 (Homo sapiens) (UniProt Q99720); settings: Compound concentration 10.0 uM
[3] = target: T1, Muscarinic acetylcholine receptor M2 (Homo sapiens) (UniProt P08172); experiment: M2/H Cerep selectivity data (BI); settings: filed as antagonist, Compound concentration 20.0 uM
T1 sequence (whole entry): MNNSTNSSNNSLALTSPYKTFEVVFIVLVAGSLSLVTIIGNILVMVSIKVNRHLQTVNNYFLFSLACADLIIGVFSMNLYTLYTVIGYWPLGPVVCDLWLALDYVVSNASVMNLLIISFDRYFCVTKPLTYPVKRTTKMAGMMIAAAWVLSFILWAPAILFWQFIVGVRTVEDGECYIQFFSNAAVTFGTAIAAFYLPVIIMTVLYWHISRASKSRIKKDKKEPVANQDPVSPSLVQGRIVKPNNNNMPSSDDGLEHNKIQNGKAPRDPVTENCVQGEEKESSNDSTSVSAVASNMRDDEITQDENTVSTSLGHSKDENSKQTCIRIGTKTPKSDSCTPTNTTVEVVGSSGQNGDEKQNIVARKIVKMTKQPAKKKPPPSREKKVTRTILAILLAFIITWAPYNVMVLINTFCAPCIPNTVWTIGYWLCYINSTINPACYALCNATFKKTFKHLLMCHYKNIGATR

[4] = target: T2, Muscarinic acetylcholine receptor M4 (Homo sapiens) (UniProt P08173); experiment: M4/H Cerep selectivity data (BI); settings: Compound concentration 20.0 uM
T2 sequence (whole entry): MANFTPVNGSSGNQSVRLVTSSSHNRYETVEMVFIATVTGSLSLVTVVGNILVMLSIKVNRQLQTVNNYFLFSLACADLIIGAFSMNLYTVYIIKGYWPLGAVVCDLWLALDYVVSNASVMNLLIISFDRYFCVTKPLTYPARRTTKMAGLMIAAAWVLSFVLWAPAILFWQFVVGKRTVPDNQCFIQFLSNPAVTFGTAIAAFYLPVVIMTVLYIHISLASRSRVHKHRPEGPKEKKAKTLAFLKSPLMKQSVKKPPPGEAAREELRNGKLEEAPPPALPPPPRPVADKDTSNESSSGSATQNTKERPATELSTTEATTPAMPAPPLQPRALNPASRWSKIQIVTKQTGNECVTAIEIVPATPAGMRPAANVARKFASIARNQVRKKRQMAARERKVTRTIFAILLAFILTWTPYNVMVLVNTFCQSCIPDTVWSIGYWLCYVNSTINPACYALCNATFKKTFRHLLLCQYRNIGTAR

[5] = target: cGMP-dependent 3',5'-cyclic phosphodiesterase (Homo sapiens) (UniProt O00408); experiment: PDE2A1 Cerep selectivity data (BI); settings: Compound concentration 20.0 uM
Chain of cGMP-dependent 3',5'-cyclic phosphodiesterase (Homo sapiens) (O00408 whole entry): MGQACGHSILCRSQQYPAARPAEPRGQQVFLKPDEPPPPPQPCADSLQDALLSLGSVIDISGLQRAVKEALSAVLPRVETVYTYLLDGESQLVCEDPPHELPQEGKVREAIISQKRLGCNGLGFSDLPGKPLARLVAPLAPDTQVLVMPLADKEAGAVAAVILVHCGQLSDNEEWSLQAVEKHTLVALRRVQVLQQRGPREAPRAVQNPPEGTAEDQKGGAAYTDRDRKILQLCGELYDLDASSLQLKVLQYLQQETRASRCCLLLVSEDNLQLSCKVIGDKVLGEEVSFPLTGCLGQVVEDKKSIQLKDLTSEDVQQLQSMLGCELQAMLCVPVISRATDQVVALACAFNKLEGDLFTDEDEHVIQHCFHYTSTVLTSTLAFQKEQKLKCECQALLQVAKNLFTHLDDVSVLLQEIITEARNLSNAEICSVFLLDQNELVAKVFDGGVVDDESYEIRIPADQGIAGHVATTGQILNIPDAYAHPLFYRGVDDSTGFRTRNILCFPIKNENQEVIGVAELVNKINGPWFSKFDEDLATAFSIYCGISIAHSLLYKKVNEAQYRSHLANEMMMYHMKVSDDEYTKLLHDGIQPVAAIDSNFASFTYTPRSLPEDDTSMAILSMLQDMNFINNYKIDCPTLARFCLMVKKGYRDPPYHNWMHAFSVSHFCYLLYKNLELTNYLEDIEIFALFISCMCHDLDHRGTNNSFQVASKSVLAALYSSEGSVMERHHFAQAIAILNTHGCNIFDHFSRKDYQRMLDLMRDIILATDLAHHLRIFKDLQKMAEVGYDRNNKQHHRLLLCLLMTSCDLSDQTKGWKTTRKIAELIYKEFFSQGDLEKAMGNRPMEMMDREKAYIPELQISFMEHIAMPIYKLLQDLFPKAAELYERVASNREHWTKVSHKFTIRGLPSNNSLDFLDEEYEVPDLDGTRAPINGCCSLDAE

[6] = target: 3',5'-cyclic-AMP phosphodiesterase 4D (Homo sapiens) (UniProt Q08499); experiment: PDE4D2 Cerep selectivity data (BI); settings: Compound concentration 20.0 uM
[7] = target: Vasopressin V2 receptor (Homo sapiens) (UniProt P30518); experiment: V2/H Cerep selectivity data (BI); settings: Compound concentration 20.0 uM
[8] = target: Adenosine receptor A2a (Homo sapiens) (UniProt P29274); experiment: A2A/HU Eurofins-Panlabs selectivity data (BI); settings: Compound concentration 10.0 uM
[9] = target: Gamma-aminobutyric acid receptor subunit alpha-1 (Rattus norvegicus) (UniProt P62813); experiment: GABAACENTR Eurofins-Panlabs selectivity data (BI); settings: Compound concentration 10.0 uM
Chain of Gamma-aminobutyric acid receptor subunit alpha-1 (Rattus norvegicus) (P62813 whole entry): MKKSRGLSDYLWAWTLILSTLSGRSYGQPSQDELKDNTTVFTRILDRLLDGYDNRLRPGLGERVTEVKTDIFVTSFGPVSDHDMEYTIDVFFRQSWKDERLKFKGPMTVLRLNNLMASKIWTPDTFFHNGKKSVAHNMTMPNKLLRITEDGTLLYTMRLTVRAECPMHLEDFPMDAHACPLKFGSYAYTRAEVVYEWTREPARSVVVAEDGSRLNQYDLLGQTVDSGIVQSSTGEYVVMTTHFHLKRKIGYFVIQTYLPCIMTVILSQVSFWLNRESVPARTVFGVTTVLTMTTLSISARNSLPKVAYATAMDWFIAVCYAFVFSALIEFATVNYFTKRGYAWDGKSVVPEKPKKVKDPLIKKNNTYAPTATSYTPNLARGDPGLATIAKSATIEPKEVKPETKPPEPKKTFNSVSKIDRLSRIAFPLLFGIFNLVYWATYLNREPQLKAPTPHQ

[10] = system: Tyrosine-protein kinase ABL1 (Homo sapiens), P00519 [E255K]; experiment: ABL1 E255K Invitrogen selectivity data (BI); settings: Compound concentration 3.0 uM
[11] = target: Tyrosine-protein kinase receptor UFO (Homo sapiens) (UniProt P30530); experiment: AXL Invitrogen selectivity data (BI); settings: Compound concentration 3.0 uM
[12] = target: LIM domain kinase 2 (Homo sapiens) (UniProt P53671); experiment: LIMK2 Invitrogen selectivity data (BI); settings: Compound concentration 3.0 uM
Chain of LIM domain kinase 2 (Homo sapiens) (P53671 whole entry, looked up, the tested form may be a part): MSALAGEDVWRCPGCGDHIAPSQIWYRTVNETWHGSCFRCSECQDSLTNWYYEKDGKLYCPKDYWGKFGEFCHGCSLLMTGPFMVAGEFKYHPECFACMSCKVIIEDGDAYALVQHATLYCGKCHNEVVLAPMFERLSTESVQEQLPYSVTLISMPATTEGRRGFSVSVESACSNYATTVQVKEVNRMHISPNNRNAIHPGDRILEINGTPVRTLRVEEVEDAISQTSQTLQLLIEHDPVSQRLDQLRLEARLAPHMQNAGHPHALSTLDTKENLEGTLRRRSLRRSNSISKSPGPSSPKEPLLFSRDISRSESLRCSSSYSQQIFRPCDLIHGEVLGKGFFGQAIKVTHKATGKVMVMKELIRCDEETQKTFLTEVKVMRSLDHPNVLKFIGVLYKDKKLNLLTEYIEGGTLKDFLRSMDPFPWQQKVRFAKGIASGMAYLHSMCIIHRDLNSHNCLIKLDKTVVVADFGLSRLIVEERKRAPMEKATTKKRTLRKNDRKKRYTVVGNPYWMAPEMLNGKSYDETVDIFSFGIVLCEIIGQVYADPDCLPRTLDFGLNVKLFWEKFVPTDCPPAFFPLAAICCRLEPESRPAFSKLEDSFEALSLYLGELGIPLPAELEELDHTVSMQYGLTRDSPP

[13] = target: T3, Megakaryocyte-associated tyrosine-protein kinase (Homo sapiens) (UniProt P42679); experiment: MATK Invitrogen selectivity data (BI); settings: Compound concentration 3.0 uM
T3 sequence (whole entry): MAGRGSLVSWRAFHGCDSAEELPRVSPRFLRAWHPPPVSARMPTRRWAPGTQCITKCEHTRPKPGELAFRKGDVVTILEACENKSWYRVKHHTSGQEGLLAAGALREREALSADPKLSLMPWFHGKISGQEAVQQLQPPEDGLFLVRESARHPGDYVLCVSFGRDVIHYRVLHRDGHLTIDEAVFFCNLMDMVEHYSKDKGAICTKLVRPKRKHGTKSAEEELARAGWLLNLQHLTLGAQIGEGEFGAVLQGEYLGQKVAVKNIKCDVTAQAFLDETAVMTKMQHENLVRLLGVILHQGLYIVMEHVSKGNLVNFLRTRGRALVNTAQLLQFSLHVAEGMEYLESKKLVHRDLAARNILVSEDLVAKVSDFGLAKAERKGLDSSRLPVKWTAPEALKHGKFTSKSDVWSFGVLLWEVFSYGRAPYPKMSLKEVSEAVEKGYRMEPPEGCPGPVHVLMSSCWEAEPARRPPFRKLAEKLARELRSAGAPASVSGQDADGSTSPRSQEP

[14] = system: Platelet-derived growth factor receptor alpha (Homo sapiens), P16234 [D842V]; experiment: PDGFRA D842V Invitrogen selectivity data (BI); settings: Compound concentration 3.0 uM
[15] = target: Protein kinase C gamma type (Homo sapiens) (UniProt P05129); experiment: PRKCG Invitrogen selectivity data (BI); settings: Compound concentration 3.0 uM
[16] = target: Ribosomal protein S6 kinase alpha-1 (Homo sapiens) (UniProt Q15418); experiment: RPS6KA1 Invitrogen selectivity data (BI); settings: Compound concentration 3.0 uM
[17] = target: Sphingosine kinase 2 (Homo sapiens) (UniProt Q9NRA0); experiment: SPHK2 Invitrogen selectivity data (BI); settings: Compound concentration 3.0 uM
[18] = target: Tyrosine-protein kinase SYK (Homo sapiens) (UniProt P43405); experiment: SYK Invitrogen selectivity data (BI); settings: Compound concentration 3.0 uM
[19] = target: Mitogen-activated protein kinase kinase kinase 20 (Homo sapiens) (UniProt Q9NYL2); experiment: ZAK Invitrogen selectivity data (BI); settings: Compound concentration 3.0 uM
Chain of Mitogen-activated protein kinase kinase kinase 20 (Homo sapiens) (Q9NYL2 2-800 limits assumed): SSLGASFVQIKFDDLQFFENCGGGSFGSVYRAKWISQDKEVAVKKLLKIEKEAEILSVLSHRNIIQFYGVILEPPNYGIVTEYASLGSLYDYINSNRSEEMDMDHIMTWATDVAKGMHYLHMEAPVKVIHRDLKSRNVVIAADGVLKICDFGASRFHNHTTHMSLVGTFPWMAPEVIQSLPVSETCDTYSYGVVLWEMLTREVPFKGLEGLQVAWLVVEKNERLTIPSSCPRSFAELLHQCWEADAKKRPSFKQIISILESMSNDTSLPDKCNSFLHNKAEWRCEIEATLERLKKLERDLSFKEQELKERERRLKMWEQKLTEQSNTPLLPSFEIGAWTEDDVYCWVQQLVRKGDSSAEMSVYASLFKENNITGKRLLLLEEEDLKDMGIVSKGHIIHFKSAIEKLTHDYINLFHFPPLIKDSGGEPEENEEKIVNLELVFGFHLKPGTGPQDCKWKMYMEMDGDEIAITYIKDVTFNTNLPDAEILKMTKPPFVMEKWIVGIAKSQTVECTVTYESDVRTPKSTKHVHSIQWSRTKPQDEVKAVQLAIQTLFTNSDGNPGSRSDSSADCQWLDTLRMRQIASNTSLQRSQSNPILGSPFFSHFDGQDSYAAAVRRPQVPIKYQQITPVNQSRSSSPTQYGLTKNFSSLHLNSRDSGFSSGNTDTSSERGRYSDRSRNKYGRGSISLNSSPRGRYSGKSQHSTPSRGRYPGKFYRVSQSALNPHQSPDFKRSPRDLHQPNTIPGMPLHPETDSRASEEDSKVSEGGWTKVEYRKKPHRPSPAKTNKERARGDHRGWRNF

Chain of Sigma non-opioid intracellular receptor 1 (Homo sapiens) (Q99720 whole entry): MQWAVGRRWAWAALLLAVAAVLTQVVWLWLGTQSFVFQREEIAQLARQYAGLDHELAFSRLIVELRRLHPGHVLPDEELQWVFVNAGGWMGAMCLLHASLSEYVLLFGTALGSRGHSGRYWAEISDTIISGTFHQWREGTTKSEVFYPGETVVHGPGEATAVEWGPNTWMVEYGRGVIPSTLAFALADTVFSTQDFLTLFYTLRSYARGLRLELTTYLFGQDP
Chain of Macrophage colony-stimulating factor 1 receptor (Homo sapiens) (P07333 whole entry): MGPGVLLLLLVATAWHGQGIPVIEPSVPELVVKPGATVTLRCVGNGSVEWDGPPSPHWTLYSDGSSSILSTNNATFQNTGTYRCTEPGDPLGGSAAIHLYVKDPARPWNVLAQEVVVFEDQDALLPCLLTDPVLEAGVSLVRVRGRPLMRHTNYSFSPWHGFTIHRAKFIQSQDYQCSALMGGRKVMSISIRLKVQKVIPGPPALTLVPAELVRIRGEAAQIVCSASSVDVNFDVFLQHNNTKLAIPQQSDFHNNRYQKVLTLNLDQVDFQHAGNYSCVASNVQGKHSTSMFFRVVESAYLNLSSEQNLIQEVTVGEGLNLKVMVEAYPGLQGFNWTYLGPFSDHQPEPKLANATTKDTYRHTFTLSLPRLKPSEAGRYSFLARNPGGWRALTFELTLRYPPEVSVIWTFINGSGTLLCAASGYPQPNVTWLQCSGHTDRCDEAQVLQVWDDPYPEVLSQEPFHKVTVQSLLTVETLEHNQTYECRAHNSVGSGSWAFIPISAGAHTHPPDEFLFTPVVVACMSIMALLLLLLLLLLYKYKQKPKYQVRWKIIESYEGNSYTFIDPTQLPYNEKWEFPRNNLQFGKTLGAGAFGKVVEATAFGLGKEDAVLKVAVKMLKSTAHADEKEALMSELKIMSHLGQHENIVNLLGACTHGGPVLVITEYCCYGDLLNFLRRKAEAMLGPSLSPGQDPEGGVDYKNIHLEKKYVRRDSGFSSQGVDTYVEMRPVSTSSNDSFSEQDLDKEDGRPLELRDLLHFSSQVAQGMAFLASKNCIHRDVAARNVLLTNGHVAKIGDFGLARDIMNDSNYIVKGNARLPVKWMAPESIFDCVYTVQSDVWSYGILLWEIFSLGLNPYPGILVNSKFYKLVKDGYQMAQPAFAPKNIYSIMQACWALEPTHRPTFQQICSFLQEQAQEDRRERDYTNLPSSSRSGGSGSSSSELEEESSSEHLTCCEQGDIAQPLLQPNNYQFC

CN(C)C(=O)Cn1cc(-c2nc(C3(c4ccc(-c5cnc(N)nc5)cc4)CC3)no2)cn1 [BI 0153]
inactive: residual activity [1] 100% | inhibition [2] -4.19%

CN(C)C(=O)Cn1cc(-c2nc([C@@](C)(c3ccc(-c4cnc(N)nc4)cc3)C3CC3)no2)cn1 [BI 665915]
inactive: residual activity [3] 98% | residual activity [4] 103% | residual activity [5] 97% | residual activity [6] 82% | residual activity [7] 102% | residual activity [8] 105% | residual activity [9] 115% | residual activity [10] 82% | residual activity [11] 95.5% | residual activity [12] 89% | residual activity [13] 97.5% | residual activity [14] 95% | residual activity [15] 100% | residual activity [16] 96% | residual activity [17] 97% | residual activity [18] 90% | residual activity [19] 97%

— ChEMBL document CHEMBL4507276 (2021)
